PubChem BioAssay AID1919007 (Molecular Pharmacology Branch, DTP, NCI, 2023)
pIC50: −log10 of the molar value.

System: A498 complex spheroids with HUVEC/MSC, growth
Experiment: Anticancer human tumor A498 cell line growth inhibition [AhR];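 also: seven day exposure starting three days after spheroid seeding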;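 as to viability, T/C: luminescence signal used as a surrogate for viable cells; luminescence viability scaled so 100% equals DMSO vehicle wells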
Details: for pIC50: curve of first compound; for viability, T/C: stronger effect = lower value
Method in brief: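 Complex tumor spheroids co-cultured with HUVEC and human MSC stroma; AhR antagonists tested in combination with standard-of-care and investigational agents. Top concentration at or near clinical Cmax (else 10 microM), half-log dilutions; growth expressed as percent test/control.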

[1] = second compound 0.1 µM, first compound 0.0316 µM
[2] = second compound 0.1 µM, first compound 0.1 µM
[3] = second compound 0.1 µM, first compound 0.316 µM
[4] = second compound 0.1 µM, first compound 1 µM
[5] = second compound 0.1 µM, first compound 3.16 µM
[6] = second compound 0.1 µM, first compound 10 µM
[7] = second compound 0.316 µM, first compound 0.0316 µM
[8] = second compound 0.316 µM, first compound 0.1 µM
[9] = second compound 0.316 µM, first compound 0.316 µM
[10] = second compound 0.316 µM, first compound 1 µM
[11] = second compound 0.316 µM, first compound 3.16 µM
[12] = second compound 0.316 µM, first compound 10 µM
[13] = second compound 1 µM, first compound 0.0316 µM
[14] = second compound 1 µM, first compound 0.1 µM
[15] = second compound 1 µM, first compound 0.316 µM
[16] = second compound 1 µM, first compound 1 µM
[17] = second compound 1 µM, first compound 3.16 µM
[18] = second compound 1 µM, first compound 10 µM
[19] = second compound 3.16 µM, first compound 0.0316 µM
[20] = second compound 3.16 µM, first compound 0.1 µM
[21] = second compound 3.16 µM, first compound 0.316 µM
[22] = second compound 3.16 µM, first compound 1 µM
[23] = second compound 3.16 µM, first compound 3.16 µM
[24] = second compound 3.16 µM, first compound 10 µM
[25] = second compound 10 µM, first compound 0.0316 µM
[26] = second compound 10 µM, first compound 0.1 µM
[27] = second compound 10 µM, first compound 0.316 µM
[28] = second compound 10 µM, first compound 1 µM
[29] = second compound 10 µM, first compound 3.16 µM
[30] = second compound 10 µM, first compound 10 µM

| Compound | pIC50 (second compound 0.1 µM) | pIC50 (second compound 0.316 µM) | pIC50 (second compound 1 µM) | pIC50 (second compound 3.16 µM) | pIC50 (second compound 10 µM) | viability, T/C [1] [%] | viability, T/C [2] [%] | viability, T/C [3] [%] | viability, T/C [4] [%] | viability, T/C [5] [%] | viability, T/C [6] [%] | viability, T/C [7] [%] | viability, T/C [8] [%] | viability, T/C [9] [%] | viability, T/C [10] [%] | viability, T/C [11] [%] | viability, T/C [12] [%] | viability, T/C [13] [%] | viability, T/C [14] [%] | viability, T/C [15] [%] | also measured |
| --- | --- | --- | --- | --- | --- | --- | --- | --- | --- | --- | --- | --- | --- | --- | --- | --- | --- | --- | --- | --- | --- |
| CC1(C)CCC(CN2CCN(c3ccc(C(=O)NS(=O)(=O)c4ccc(NCC5CCOCC5)c([N+](=O)[O-])c4)c(Oc4cnc5[nH]ccc5c4)c3)CC2)=C(c2ccc(Cl)cc2)C1 + Cc1ccccc1N=Nc1ccc(NC(=O)c2ccnn2C)c(C)c1 | 5.07 | < 5.00 | 5.06 | < 5.00 | 5.06 | 88.7 | 89.5 | 87.9 | 86.6 | 76.8 | 45.8 | 99.9 | 98.2 | 95.6 | 87.5 | 75.9 | 52.3 | 84.7 | 87.4 | 83.6 | viability, T/C [16]: 72%; viability, T/C [17]: 66.5%; viability, T/C [18]: 47.8%; viability, T/C [19]: 83%; viability, T/C [20]: 86.7%; viability, T/C [21]: 91.3%; viability, T/C [22]: 76.9%; viability, T/C [23]: 66.7%; viability, T/C [24]: 50.5%; viability, T/C [25]: 88.3%; viability, T/C [26]: 86.7%; viability, T/C [27]: 84.6%; viability, T/C [28]: 77.6%; viability, T/C [29]: 78.5%; viability, T/C [30]: 46% |
| CC1COCCN1c1cc(C2(S(C)(=N)=O)CC2)nc(-c2ccnc3[nH]ccc23)n1 (stereo not given) + Cc1ccccc1N=Nc1ccc(NC(=O)c2ccnn2C)c(C)c1 | 5.60 | 5.68 | 5.74 | 5.73 | 5.69 | 84.6 | 85.4 | 84.3 | 66 | 46.6 | 23.2 | 101 | 90.5 | 88.3 | 68.1 | 38.9 | 25.7 | 81.7 | 78.2 | 82.2 | viability, T/C [16]: 61.7%; viability, T/C [17]: 38.2%; viability, T/C [18]: 21.2%; viability, T/C [19]: 83%; viability, T/C [20]: 82.4%; viability, T/C [21]: 77.2%; viability, T/C [22]: 64%; viability, T/C [23]: 38.5%; viability, T/C [24]: 24.2%; viability, T/C [25]: 82.6%; viability, T/C [26]: 81.5%; viability, T/C [27]: 78.7%; viability, T/C [28]: 67.8%; viability, T/C [29]: 39%; viability, T/C [30]: 25% |
